According to US20240391936A1, “TETRAHYDROTHIENO PYRIDINE DERIVATIVES AS DDRS INHIBITORS” (CHIESI FARMACEUTICI S.P.A., priority 2021, published 2024):

How the values were obtained:
DDR2 [1] = target: T1, DDR2 (Homo sapiens, UniProt Q16832); experiment: DDR2 binding assay (LanthaScreen Europium Kinase Binding assay); set-up: purchased Life Technologies; settings: binding assay, 5 nM DDR2, 10 nM Kinase Tracer 178; Ki from IC50 by Cheng-Prusoff; read-out: Ki DDR2
T1 sequence (Q16832 22-855): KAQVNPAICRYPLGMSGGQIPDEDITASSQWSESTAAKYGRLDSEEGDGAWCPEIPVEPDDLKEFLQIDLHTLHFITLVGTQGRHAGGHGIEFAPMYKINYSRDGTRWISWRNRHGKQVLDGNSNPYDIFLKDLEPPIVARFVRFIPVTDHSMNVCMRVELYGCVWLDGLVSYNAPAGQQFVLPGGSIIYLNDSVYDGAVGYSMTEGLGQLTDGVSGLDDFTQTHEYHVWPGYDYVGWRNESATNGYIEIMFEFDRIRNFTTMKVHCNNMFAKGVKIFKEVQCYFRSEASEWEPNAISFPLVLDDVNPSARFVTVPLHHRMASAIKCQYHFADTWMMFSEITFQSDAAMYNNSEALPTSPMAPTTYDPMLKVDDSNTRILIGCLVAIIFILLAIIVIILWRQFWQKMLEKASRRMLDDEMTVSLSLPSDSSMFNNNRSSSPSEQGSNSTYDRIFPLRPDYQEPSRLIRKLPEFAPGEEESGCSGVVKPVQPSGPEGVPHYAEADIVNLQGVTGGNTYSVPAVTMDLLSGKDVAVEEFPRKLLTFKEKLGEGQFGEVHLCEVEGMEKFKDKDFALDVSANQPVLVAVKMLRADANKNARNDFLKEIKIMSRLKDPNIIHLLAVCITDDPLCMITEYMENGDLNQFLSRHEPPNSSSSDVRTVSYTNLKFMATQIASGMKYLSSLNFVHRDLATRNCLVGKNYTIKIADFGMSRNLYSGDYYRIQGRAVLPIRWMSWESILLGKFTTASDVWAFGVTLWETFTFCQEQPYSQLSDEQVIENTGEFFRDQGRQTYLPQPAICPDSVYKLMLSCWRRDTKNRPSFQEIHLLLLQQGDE
How it was run: (§1)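 Compounds incubated 1 h at room temperature with 5 nM kinase, Kinase Tracer 178 (20 nM for DDR1, 10 nM for DDR2) and 2 nM Eu-anti-GST antibody in pH 7.5 HEPES/MgCl2/EGTA/BRIJ35 buffer. TR-FRET 665/615 nm ratio read after 340 nm excitation; IC50 from 4-parameter fit, converted to Ki by Cheng-Prusoff.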

DDR2 [2] = target: T1, DDR2; experiment: DDR2 cell based assay (phospho-ELISA in HEK293T-DDR2 recombinant cells); set-up: expressed in transfected cells; host or cells: HEK293T-DDR2 recombinant cells; settings: bovine Type II Collagen 50 μg/ml
Protocol: The inhibition of DDR2 phosphorylation by compounds was evaluated in HEK293T-DDR2 recombinant cells by phospho-ELISA assay. Briefly, HEK293T-DDR2 cells were seeded in poly-D-lysine-coated 24-well plates at a density of 250.000 cells/well and incubated for 1.5 hours at 37° C. and 5% CO2 in DMEM+10% FBS. After that, the medium was changed to serum-free DMEM and cells were incubated for 3 hours. Then. test compounds were added at different concentrations 30 minutes before stimulation with bovine Type II Collagen at 50 μg/ml for further 3 hours. For DDR2 phospho-ELISA assay (DuoSet IC Human Phospho-DDR2; R&D Systems), protein extracts were obtained by adding 60 μl/well of lysis buffer prepared according to the manufacturer's instructions. Protein concentration in the samples was determined by BCA assay and the levels of phospho-DDR2 were determined following R&D Systems indications. Raw data were normalized to maximal inhibition control (0% for normalization) and positive control (100% for normalization; cells treated with […] collagen II) and IC50 parameters were calculated in GraphPad Prism 8.0 software, using sigmoidal dose-response curve fitting with variable slope.

DDR1 [3] = target: T2, DDR1 (Homo sapiens, UniProt Q08345); experiment: DDR1 cell based assay (PathHunter U2OS DDR1 assay); set-up: host or cells: U2OS-DDR1 (PathHunter); settings: U2OS-DDR1 cells, bovine Type II Collagen 20 μg/ml
How it was run: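 U2OS-DDR1 PathHunter cells preincubated 30 min with compound, then stimulated overnight at 37 °C with 20 μg/ml bovine type II collagen. Luminescent complementation signal read after 1 h detection at room temperature; normalized to vehicle (0%) and collagen-only (100%) controls, IC50 from variable-slope sigmoidal fit.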

DDR1 [4] = target: T2, DDR1; experiment: DDR1 binding assay (LanthaScreen Europium Kinase Binding assay); set-up: purchased Carna Biosciences; settings: binding assay, 5 nM DDR1, 20 nM Kinase Tracer 178; Ki from IC50 by Cheng-Prusoff; read-out: Ki DDR1
How it was run: as §1

T2 sequence (Q08345 19-913): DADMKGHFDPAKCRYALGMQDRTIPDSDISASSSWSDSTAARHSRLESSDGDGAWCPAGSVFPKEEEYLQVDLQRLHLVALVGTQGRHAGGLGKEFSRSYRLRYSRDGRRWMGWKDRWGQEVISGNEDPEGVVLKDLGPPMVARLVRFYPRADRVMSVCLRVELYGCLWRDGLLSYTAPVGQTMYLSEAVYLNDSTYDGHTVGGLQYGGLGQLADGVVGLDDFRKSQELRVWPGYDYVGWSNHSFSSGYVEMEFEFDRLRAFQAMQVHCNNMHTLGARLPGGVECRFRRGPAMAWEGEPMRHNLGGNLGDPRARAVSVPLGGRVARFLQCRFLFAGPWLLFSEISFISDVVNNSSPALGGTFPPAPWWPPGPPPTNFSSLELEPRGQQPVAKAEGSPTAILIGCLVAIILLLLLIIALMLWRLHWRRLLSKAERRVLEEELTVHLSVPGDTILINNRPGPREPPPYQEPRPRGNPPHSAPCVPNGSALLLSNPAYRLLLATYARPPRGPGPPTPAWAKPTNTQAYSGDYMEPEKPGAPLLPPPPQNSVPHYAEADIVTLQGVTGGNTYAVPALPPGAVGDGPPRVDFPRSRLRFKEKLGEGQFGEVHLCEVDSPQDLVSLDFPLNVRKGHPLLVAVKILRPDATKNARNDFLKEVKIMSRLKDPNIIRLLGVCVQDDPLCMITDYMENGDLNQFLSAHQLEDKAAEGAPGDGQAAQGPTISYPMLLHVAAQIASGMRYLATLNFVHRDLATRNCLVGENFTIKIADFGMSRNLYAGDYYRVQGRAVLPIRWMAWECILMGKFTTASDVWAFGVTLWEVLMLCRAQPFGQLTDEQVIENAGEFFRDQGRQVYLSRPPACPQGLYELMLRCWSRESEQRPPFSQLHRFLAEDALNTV

Compound	Ki (DDR2 [1]) [nM]	IC50 (DDR2 [2]) [nM]	IC50 (DDR1 [3]) [nM]	Ki (DDR1 [4]) [nM]
CC1Cc2c(C(=O)Nc3cccc(C(F)(F)F)c3)csc2CN1Cc1cnc2cnccn12 (single isomer, unassigned) [Example 104, 6-(imidazo[1,2-a]pyrazin-3-ylmethyl)-5-methyl-N-(3-(trifluoromethyl)phenyl)-4,5,6,7-tetrahydrothieno[2,3-c]pyridine-3-carboxamide]	< 25	50 to 80	< 25	< 25
CC1c2scc(C(=O)Nc3cccc(C(F)(F)F)c3)c2CCN1Cc1cnc2[nH]ccc2c1 (single isomer, unassigned) [Example 106, 6-((1H-pyrrolo[2,3-b]pyridin-5-yl)methyl)-7-methyl-N-(3-(trifluoromethyl)phenyl)-4,5,6,7-tetrahydrothieno[2,3-c]pyridine-3-carboxamide]	< 25	25 to 50	< 25	< 25
CN1CCN(Cc2cc(NC(=O)c3csc4c3CCN(C(=O)c3cnc5ccccn35)C4)cc(C(F)(F)F)c2)CC1 [Example 1, 6-(imidazo[1,2-a]pyridine-3-carbonyl)-N-(3-((4-methylpiperazin-1-yl)methyl)-5-(trifluoromethyl)phenyl)-4,5,6,7-tetrahydrothieno[2,3-c]pyridine-3-carboxamide]	< 25	< 25	25 to 50	< 25
O=C(Nc1cc(CN2CCOCC2)cc(C(F)(F)F)c1)c1csc2c1CCN(C(=O)c1cnc3ccccn13)C2 [Example 20, 6-(imidazo[1,2-a]pyridine-3-carbonyl)-N-(3-(morpholinomethyl)-5-(trifluoromethyl)phenyl)-4,5,6,7-tetrahydrothieno[2,3-c]pyridine-3-carboxamide]	< 25	< 25	< 25	< 25
O=C(Nc1ccc(CN2CCOCC2)c(C(F)(F)F)c1)c1csc2c1CCN(C(=O)c1cnc3ccccn13)C2 [Example 23, 6-(imidazo[1,2-a]pyridine-3-carbonyl)-N-(4-(morpholinomethyl)-3-(trifluoromethyl)phenyl)-4,5,6,7-tetrahydrothieno[2,3-c]pyridine-3-carboxamide]	< 25	25 to 50	< 25	< 25
O=C(Nc1cc(N2CCOCC2)cc(C(F)(F)F)c1)c1csc2c1CCN(C(=O)c1cnn3ccncc13)C2 [Example 182, N-(3-morpholino-5-(trifluoromethyl)phenyl)-6-(pyrazolo[1,5-a]pyrazine-3-carbonyl)-4,5,6,7-tetrahydrothieno[2,3-c]pyridine-3-carboxamide]	< 25	–	< 25	< 25
CC(C)Cc1cc(NC(=O)c2csc3c2CCN(C(=O)c2cnn4ccncc24)C3)on1 [Example 183, N-(3-isobutylisoxazol-5-yl)-6-(pyrazolo[1,5-a]pyrazine-3-carbonyl)-4,5,6,7-tetrahydrothieno[2,3-c]pyridine-3-carboxamide]	< 25	–	50 to 80	< 25
CC1CN(C(=O)c2cnc3ccccn23)Cc2scc(C(=O)Nc3cccc(C(F)(F)F)c3)c21 (centres unmarked) [Example 185, 6-(imidazo[1,2-a]pyridine-3-carbonyl)-4-methyl-N-(3-(trifluoromethyl)phenyl)-4,5,6,7-tetrahydrothieno[2,3-c]pyridine-3-carboxamide]	< 25	–	< 25	< 25
O=C(Nc1cc(CO)cc(C(F)(F)F)c1)c1csc2c1CCN(C(=O)c1cnn3ccncc13)C2 [Example 187, N-(3-(hydroxymethyl)-5-(trifluoromethyl)phenyl)-6-(pyrazolo[1,5-a]pyrazine-3-carbonyl)-4,5,6,7-tetrahydrothieno[2,3-c]pyridine-3-carboxamide]	< 25	–	< 25	< 25

Second part, the compound after the results:

Ki (DDR2 [1]) [nM]	IC50 (DDR2 [2]) [nM]	IC50 (DDR1 [3]) [nM]	Ki (DDR1 [4]) [nM]	Compound
< 25	< 25	< 25	< 25	Cn1nc(C(C)(C)C)cc1NC(=O)c1csc2c1CCN(C(=O)c1cnc3ccccn13)C2 [Example 3, N-(3-(tert-butyl)-1-methyl-1H-pyrazol-5-yl)-6-(imidazo[1,2-a]pyridine-3-carbonyl)-4,5,6,7-tetrahydrothieno[2,3-c]pyridine-3-carboxamide]
< 25	< 25	< 25	< 25	COc1ccc(NC(=O)c2csc3c2CCN(C(=O)c2cnc4ccccn24)C3)cc1C(F)(F)F [Example 4, 6-(imidazo[1,2-a]pyridine-3-carbonyl)-N-(4-methoxy-3-(trifluoromethyl)phenyl)-4,5,6,7-tetrahydrothieno[2,3-c]pyridine-3-carboxamide]
< 25	< 25	< 25	< 25	O=C(Nc1cccc(C(F)(F)F)c1)c1csc2c1CCN(C(=O)c1cnc3ccccn13)C2 [Example 7, 6-(imidazo[1,2-a]pyridine-3-carbonyl)-N-(3-(trifluoromethyl)phenyl)-4,5,6,7-tetrahydrothieno[2,3-c]pyridine-3-carboxamide]
< 25	< 25	< 25	< 25	O=C(Nc1cccc(OC(F)(F)F)c1)c1csc2c1CCN(C(=O)c1cnc3ccccn13)C2 [Example 8, 6-(imidazo[1,2-a]pyridine-3-carbonyl)-N-(3-(trifluoromethoxy)phenyl)-4,5,6,7-tetrahydrothieno[2,3-c]pyridine-3-carboxamide]
< 25	< 25	< 25	< 25	CC(C)(c1cc(NC(=O)c2csc3c2CCN(C(=O)c2cnc4ccccn24)C3)no1)C(F)(F)F [Example 9, 6-(imidazo[1,2-a]pyridine-3-carbonyl)-N-(5-(1,1,1-trifluoro-2-methylpropan-2-yl)isoxazol-3-yl)-4,5,6,7-tetrahydrothieno[2,3-c]pyridine-3-carboxamide]
< 25	< 25	< 25	< 25	O=C(Nc1ccc(OC2CCOC2)c(C(F)(F)F)c1)c1csc2c1CCN(C(=O)c1cnc3ccccn13)C2 (centres unmarked) [Example 12, 6-(imidazo[1,2-a]pyridine-3-carbonyl)-N-(4-((tetrahydrofuran-3-yl)oxy)-3-(trifluoromethyl)phenyl)-4,5,6,7-tetrahydrothieno[2,3-c]pyridine-3-carboxamide]
< 25	–	25 to 50	< 25	O=C(Nc1cc(N2CCOCC2)cc(C(F)(F)F)c1)c1csc2c1CCN(C(=O)c1cnc3ccccn13)C2 [Example 181, 6-(imidazo[1,2-a]pyridine-3-carbonyl)-N-(3-morpholino-5-(trifluoromethyl)phenyl)-4,5,6,7-tetrahydrothieno [2,3-c]pyridine-3-carboxamide]
< 25	–	< 25	< 25	O=C(Nc1cncc(OC(F)(F)F)c1)c1csc2c1CCN(C(=O)c1cnc3ccccn13)C2 [Example 186, 6-(imidazo[1,2-a]pyridine-3-carbonyl)-N-(5-(trifluoromethoxy)pyridin-3-yl)-4,5,6,7-tetrahydrothieno[2,3-c]pyridine-3-carboxamide]
